According to article PMC10043283, “Neuraminidase 1 promotes renal fibrosis development in male mice” (Nature Communications, 2023):
pKd: −log10 of the molar value. Where two headings read alike, the source gives them in different places.

Molecular target: T1, NEU1 (neuraminidase 1) (Homo sapiens, UniProt Q99519)
T1 construct: recombinant human NEU1 protein
Test: SPR (Biacore T200, NEU1 immobilized on CM5 chip)
Assay type: binding

Compound	pKd (read-out: Kd)	pKd
O=C(/C=C/c1ccc(O)c(O)c1/C=C/c1ccc(O)c(O)c1)O[C@H](Cc1ccc(O)c(O)c1)C(=O)O [SaA, salvianolic acid A]	4.28	–
O=C(/C=C/c1ccc(O)c2c1[C@H](C(=O)O[C@H](Cc1ccc(O)c(O)c1)C(=O)O)[C@@H](c1ccc(O)c(O)c1)O2)O[C@H](Cc1ccc(O)c(O)c1)C(=O)O [SaB, salvianolic acid B]	7.67	–
O=C(/C=C/c1ccc(O)c(O)c1)O[C@H](Cc1ccc(O)c(O)c1)C(=O)O [rosmarinic acid]	–	6.85
